Our source for the Activity and MIC values is ChEMBL document CHEMBL3046260, “Synthesis of benzo[b][1,4]oxazin-3(4H)-ones via smiles rearrangement for antimicrobial activity” (2011).

For assay [1], the system named is Aspergillus flavus. Briefly: Microbiostatic activity against Aspergillus flavus ATCC 10124. Format: functional, organism-based.
Assay [2] has as its system Candida albicans. Briefly: Microbiostatic activity against Candida albicans ATCC 76615. Format: functional, organism-based.
Assay [3] has as its system Escherichia coli. Briefly: Microbiostatic activity against Escherichia coli ATCC 25922 after […]. Format: functional, organism-based.
For assay [4], the system named is Pseudomonas aeruginosa. Briefly: Antimicrobial activity against Pseudomonas aeruginosa ATCC 27853 after 24 hr by two-fold serial dilution method. Format: functional. As to conditions: ATCC 27853, 24 h.
Assay [5] has as its system Pseudomonas aeruginosa. Briefly: Microbiostatic activity against Pseudomonas aeruginosa ATCC 27853 after 24 hr.
Assay [6] deals with Candida albicans. Briefly: Antimicrobial activity against Candida albicans ATCC 76615 after 48 hr by two-fold serial dilution method. Format: functional. As to conditions: ATCC 76615, 48 h.
Assay [7] relates to Escherichia coli. Briefly: Antimicrobial activity against Escherichia coli ATCC 25922 after 24 hr by two-fold serial dilution method. As to conditions: ATCC 25922, 24 h. In kind it is functional.
The test system of assay [8] is Bacillus spizizenii. Briefly: Microbiostatic activity against Bacillus subtilis subsp. spizizenii ATCC 6633 after 24 hr.
Assay [9] relates to Proteus vulgaris. Briefly: Microbiostatic activity against Proteus vulgaris ATCC 6896 after 24 hr.
The subject of assay [10] is Aspergillus flavus. Briefly: Antimicrobial activity against Aspergillus flavus ATCC 10124 after 48 hr by two-foldserial dilution method. In kind it is functional. As to conditions: ATCC 10124, 48 h.
The subject of assay [11] is Staphylococcus aureus. Briefly: Antimicrobial activity against Staphylococcus aureus ATCC 25923 after 24 hr by two-fold serial dilution method. In kind it is functional. As to conditions: ATCC 25923, 24 h.
Assay [12] concerns Bacillus spizizenii. Briefly: Antimicrobial activity against Bacillus subtilis subsp. spizizenii ATCC 6633 after 24 hr by two-fold serial dilution method. In kind it is functional. As to conditions: ATCC 6633, 24 h.
Assay [13] relates to Staphylococcus aureus. Briefly: Microbiostatic activity against Staphylococcus aureus ATCC 25923 after 24 hr.
In assay [14] the test system is Proteus vulgaris. Briefly: Antimicrobial activity against Proteus vulgaris ATCC 6896 after 24 hr by two-fold serial dilution method. In kind it is functional. As to conditions: ATCC 6896, 24 h.

Values after ≈ are worked out from the molar mass of the structure shown. Active and inactive are the calls of the source. No cut-off for these calls is given here.

What is called MIC is the lowest concentration found to suppress growth. A low value points to greater potency.

With `O=C1COc2cc(Cl)ccc2N1C1CCCCC1`, the result in the assay on Aspergillus flavus [1], in the assay on Candida albicans [2], in the assay with Escherichia coli [3], with Pseudomonas aeruginosa [5], in the assay on Bacillus spizizenii [8] and in the assay on Proteus vulgaris [9] was Active. Besides, in the assay on Staphylococcus aureus [13], the outcome was Active. In addition, the MIC stood at 32 µg/mL (≈ 120 µM) with Pseudomonas aeruginosa [4]; 256 µg/mL (≈ 963 µM) in the assay on Candida albicans [6]; 32 µg/mL (≈ 120 µM) in the assay with Escherichia coli [7]; 128 µg/mL (≈ 482 µM) against Aspergillus flavus [10]; 64 µg/mL (≈ 241 µM) against Staphylococcus aureus [11]; 64 µg/mL (≈ 241 µM) in the assay on Bacillus spizizenii [12]. The molecule also returned an MIC with Proteus vulgaris [14] of 64 µg/mL (≈ 241 µM).

For the molecule `O=C1COc2c(Cl)cccc2N1C1CCCCC1`, the outcome in the assay with Aspergillus flavus [1], with Candida albicans [2], in the assay on Escherichia coli [3], in the assay on Pseudomonas aeruginosa [5], in the assay with Bacillus spizizenii [8] and in the assay with Proteus vulgaris [9] was Active. In addition, the outcome in the assay with Staphylococcus aureus [13] was Active. The MIC in the assay on Pseudomonas aeruginosa [4] is 16 µg/mL (≈ 60.2 µM); with Candida albicans [6] it was 128 µg/mL (≈ 482 µM); with Escherichia coli [7], 32 µg/mL (≈ 120 µM); in the assay with Aspergillus flavus [10] it was 256 µg/mL (≈ 963 µM); against Staphylococcus aureus [11] it was 64 µg/mL (≈ 241 µM); with Bacillus spizizenii [12] it was 32 µg/mL (≈ 120 µM). The molecule further came in with an MIC against Proteus vulgaris [14] of 32 µg/mL (≈ 120 µM).

Take `O=C1COc2cc(F)ccc2N1CC1CCCO1` (stereo unspecified): the result in the assay with Aspergillus flavus [1], in the assay on Candida albicans [2], in the assay on Escherichia coli [3], in the assay on Pseudomonas aeruginosa [5], in the assay on Bacillus spizizenii [8] and in the assay on Proteus vulgaris [9] was Active. Besides, the outcome with Staphylococcus aureus [13] was Active. Further, the MIC stood at 128 µg/mL (≈ 509 µM) with Pseudomonas aeruginosa [4]; 256 µg/mL (≈ 1020 µM) in the assay with Candida albicans [6]; 32 µg/mL (≈ 127 µM) against Escherichia coli [7]; 32 µg/mL (≈ 127 µM) with Staphylococcus aureus [11]; 32 µg/mL (≈ 127 µM) in the assay on Bacillus spizizenii [12]; 16 µg/mL (≈ 63.7 µM) in the assay on Proteus vulgaris [14].

`O=C1COc2ccc(Cl)cc2N1C1CCCCC1`: the result with Aspergillus flavus [1], in the assay with Candida albicans [2], in the assay with Escherichia coli [3], with Pseudomonas aeruginosa [5], in the assay on Bacillus spizizenii [8] and in the assay on Proteus vulgaris [9] was Active. The result with Staphylococcus aureus [13] was Active. The MIC in the assay on Pseudomonas aeruginosa [4] is 64 µg/mL (≈ 241 µM); against Candida albicans [6], 32 µg/mL (≈ 120 µM); with Escherichia coli [7] it was 128 µg/mL (≈ 482 µM); with Aspergillus flavus [10], 32 µg/mL (≈ 120 µM); against Staphylococcus aureus [11] it was 128 µg/mL (≈ 482 µM); against Bacillus spizizenii [12], 32 µg/mL (≈ 120 µM). In the assay on Proteus vulgaris [14], this molecule had a minimal inhibitory concentration (MIC) of 16 µg/mL (≈ 60.2 µM).

For the molecule `O=C1COc2cc(Br)ccc2N1C1CCCCC1`, the outcome in the assay with Aspergillus flavus [1], with Candida albicans [2], with Escherichia coli [3], in the assay on Pseudomonas aeruginosa [5], in the assay with Bacillus spizizenii [8] and in the assay on Proteus vulgaris [9] was Active. Also, the outcome with Staphylococcus aureus [13] was Active. Further, the MIC with Pseudomonas aeruginosa [4] worked out at 16 µg/mL (≈ 51.6 µM); against Candida albicans [6], 256 µg/mL (≈ 825 µM); against Escherichia coli [7], 16 µg/mL (≈ 51.6 µM); with Staphylococcus aureus [11], 32 µg/mL (≈ 103 µM); against Bacillus spizizenii [12], 32 µg/mL (≈ 103 µM); with Proteus vulgaris [14], 32 µg/mL (≈ 103 µM).

For the molecule `O=C1COc2cc(Br)ccc2N1CC1CCCO1` (stereo unspecified), the result in the assay with Aspergillus flavus [1], in the assay with Candida albicans [2], with Escherichia coli [3], with Pseudomonas aeruginosa [5], in the assay with Bacillus spizizenii [8] and in the assay on Proteus vulgaris [9] was Active. Also, in the assay with Staphylococcus aureus [13], the outcome was Active. For the same molecule, the MIC with Pseudomonas aeruginosa [4] came out at 64 µg/mL (≈ 205 µM); with Candida albicans [6], 128 µg/mL (≈ 410 µM); with Escherichia coli [7], 32 µg/mL (≈ 103 µM); in the assay with Staphylococcus aureus [11] it was 32 µg/mL (≈ 103 µM); in the assay on Bacillus spizizenii [12], 32 µg/mL (≈ 103 µM); against Proteus vulgaris [14], 32 µg/mL (≈ 103 µM).

As to `CCCCCCN1C(=O)COc2cc(Cl)ccc21`, the result with Aspergillus flavus [1], in the assay on Candida albicans [2], in the assay on Escherichia coli [3], with Pseudomonas aeruginosa [5], with Bacillus spizizenii [8] and in the assay on Proteus vulgaris [9] was Active. For the same molecule, in the assay on Staphylococcus aureus [13], the outcome was Active. Also, the MIC against Pseudomonas aeruginosa [4] worked out at 32 µg/mL (≈ 120 µM); against Candida albicans [6] it was 512 µg/mL (≈ 1910 µM); in the assay with Escherichia coli [7] it was 32 µg/mL (≈ 120 µM); against Staphylococcus aureus [11], 32 µg/mL (≈ 120 µM); against Bacillus spizizenii [12] it was 32 µg/mL (≈ 120 µM); with Proteus vulgaris [14], 16 µg/mL (≈ 59.8 µM).

`CN[C@@H]1[C@H](O[C@H]2[C@H](O[C@H]3[C@H](O)[C@@H](O)[C@H](N=C(N)N)[C@@H](O)[C@@H]3N=C(N)N)O[C@@H](C)[C@]2(O)C=O)O[C@@H](CO)[C@H](O)[C@H]1O` [STREPTOMYCIN]: the result in the assay with Aspergillus flavus [1], with Candida albicans [2], in the assay on Escherichia coli [3], in the assay on Pseudomonas aeruginosa [5], with Bacillus spizizenii [8] and in the assay with Proteus vulgaris [9] was Active. The outcome in the assay on Staphylococcus aureus [13] was Active. The MIC against Pseudomonas aeruginosa [4] turned out to be 2 µg/mL (≈ 3.44 µM); with Escherichia coli [7], 4 µg/mL (≈ 6.88 µM); against Staphylococcus aureus [11], 2 µg/mL (≈ 3.44 µM); against Bacillus spizizenii [12], 32 µg/mL (≈ 55 µM); with Proteus vulgaris [14], 4 µg/mL (≈ 6.88 µM).

As to `CC(C)(O/N=C(\C(=O)N[C@@H]1C(=O)N2C(C(=O)[O-])=C(C[n+]3ccccc3)CS[C@H]12)c1csc(N)n1)C(=O)O` [CEFTAZIDIME], the result in the assay with Aspergillus flavus [1], with Candida albicans [2], in the assay on Escherichia coli [3], with Pseudomonas aeruginosa [5], in the assay with Bacillus spizizenii [8] and with Proteus vulgaris [9] was Active. Also, the result in the assay on Staphylococcus aureus [13] was Active. Besides, the MIC against Pseudomonas aeruginosa [4] was determined as 128 µg/mL (≈ 234 µM); against Escherichia coli [7], 4 µg/mL (≈ 7.32 µM); in the assay with Staphylococcus aureus [11], 4 µg/mL (≈ 7.32 µM); against Bacillus spizizenii [12], 2 µg/mL (≈ 3.66 µM); with Proteus vulgaris [14] it was 4 µg/mL (≈ 7.32 µM).

With `O=C1COc2cc(Cl)ccc2N1CCc1ccccc1`, the outcome with Aspergillus flavus [1], in the assay on Candida albicans [2], in the assay with Escherichia coli [3], with Pseudomonas aeruginosa [5], with Bacillus spizizenii [8] and with Proteus vulgaris [9] was Active. Besides, the result with Staphylococcus aureus [13] was Active. Moreover, the MIC was determined as 16 µg/mL (≈ 55.6 µM) against Pseudomonas aeruginosa [4]; 128 µg/mL (≈ 445 µM) in the assay on Candida albicans [6]; 32 µg/mL (≈ 111 µM) against Escherichia coli [7]; 64 µg/mL (≈ 222 µM) with Staphylococcus aureus [11]; 64 µg/mL (≈ 222 µM) against Bacillus spizizenii [12]; 16 µg/mL (≈ 55.6 µM) in the assay with Proteus vulgaris [14].

As for `CC1(C)S[C@@H]2[C@H](NC(=O)[C@H](N)c3ccccc3)C(=O)N2[C@H]1C(=O)O` [AMPICILLIN], the result with Aspergillus flavus [1], in the assay with Candida albicans [2], with Escherichia coli [3], in the assay with Pseudomonas aeruginosa [5], in the assay on Bacillus spizizenii [8] and in the assay on Proteus vulgaris [9] was Active. The result in the assay with Staphylococcus aureus [13] was Active. Also, the MIC with Pseudomonas aeruginosa [4] came to 128 µg/mL (≈ 366 µM); against Escherichia coli [7], 16 µg/mL (≈ 45.8 µM); against Staphylococcus aureus [11], 2 µg/mL (≈ 5.72 µM); with Bacillus spizizenii [12], 1 µg/mL (≈ 2.86 µM); with Proteus vulgaris [14] it was 16 µg/mL (≈ 45.8 µM).

Take `CCCCCCN1C(=O)COc2cc(Br)ccc21`: the result in the assay with Aspergillus flavus [1], with Candida albicans [2], in the assay on Escherichia coli [3], in the assay with Pseudomonas aeruginosa [5], in the assay on Bacillus spizizenii [8] and with Proteus vulgaris [9] was Active. For the same molecule, the outcome in the assay on Staphylococcus aureus [13] was Active. The MIC with Pseudomonas aeruginosa [4] was determined as 32 µg/mL (≈ 102 µM); against Candida albicans [6] it was 128 µg/mL (≈ 410 µM); in the assay on Escherichia coli [7], 32 µg/mL (≈ 102 µM); in the assay with Staphylococcus aureus [11], 32 µg/mL (≈ 102 µM); in the assay with Bacillus spizizenii [12], 32 µg/mL (≈ 102 µM); in the assay with Proteus vulgaris [14], 16 µg/mL (≈ 51.2 µM).
